“Also recorded” adds a separate entry of the source. Ends that are not written are not given here.
Experiments:
[1] = tested on: platelets (platelet-rich plasma); assay: γ-thrombin-induced platelet aggregation in platelet-rich plasma; format: cell-based, human; details: for Fold Increase in Aggregation Inhibition over RPPGF: γ-thrombin, compared to RPPGF at 0.2 mM; for peptide concentration at which γ-thrombin-induced platelet aggregation returned: 70 nM γ-thrombin
Experimental: (§1) Fresh whole blood was collected and mixed with 0.013 M sodium citrate and platelet-rich plasma was prepared according to the method of Meloni et al., J. Biol. Chem. 266, 6786 (1991). Platelet-rich plasma with a normalized platelet count between 2-2.5×10^8 platelets/ml was added to a cuvette of an aggregometer (Chronlog Corp., Havertown, Pa.), standardized using the protocol of Meloni et al., supra. Peptides to be examined were added to the cuvette and the mixture stabilized for a few moments. Once the baseline was stabilized, γ-thrombin (10-70 NM) (Haematologic Technologies, Essex Junction, Vt.) was added to determine the minimal concentration of the agonist necessary to achieve full platelet aggregation. All investigations with peptides were performed using threshold concentrations of γ-thrombin. Aggregation was allowed to proceed for 5 minutes before stopping. When ADP-induced platelet aggregation studies were performed, 1-5 μM ADP (Sigrna) was added to the cuvette containing platelet-rich plasma.

[2] = tested on: Normal human lung fibroblasts (NHLF); assay: α-thrombin-induced calcium mobilization in fibroblasts (fura-2); format: cell-based; details: for Ca2+ % Inhibition At 0.2 mM Peptide: thrombin-induced calcium mobilization in fibroblasts
Experimental: The second assay developed to assess peptides from the combinatorial libraries uses inhibition of α-thrombin-induced calcium mobilization in fibroblasts. Normal human lung fibroblasts (NHLF) were purchased from Clonetics, San Diego, Calif., an affiliate of Bio-Wittaker, Walkersville, Md. The cytoplasmic free Ca^2+ concentration ([Ca^2+]i) was measured using the fluorescent Ca^2+ indicator fura-2 (Molecular Probes, Inc., Eugene, Oreg.). Suspension of fibroblasts in Hepes-Tyrode's buffer were loaded with fura-2 by incubation at 37° C. with 2 μM fura-2/acetoxymethyl ester for 45 minutes according to the method of Rasmussen et al., J. Biol. Chem. 268, 14322 (1993). The labeled fibroblasts were separated from excess probe by washing by centrifugation at 1000 rpm (180×g). Aliquots of the labeled fibroblasts were transferred into a quartz cuvette with a magnetic stirrer, which was then placed in a thennostatically controlled chamber at 37° C. in a fluorescence spectrophotometer (Perkin-Elmer LS50B spectrofluorometer, Chicago, Ill.). Reagents, test peptide (SEQ ID NO: 5) (from 0.2 mM to effective lower concentration), and α-thrombin (2-4 nM), were sequentially added directly to the cuvette. The excitation wavelengths varied between 340 and 380 nm. Fluorescence was measured by recording emitted light at 510 nm as reported by Fisher et al., Mol Pharm. 35, 195 (1989). The minimum emission was determined on a solubilized fibroblast sample in the presence of 10 mM EDTA; maximum emission was determined on the same sample with 10 mM Ca^2+ added. The intrafibroblast free Ca^2+ concentration was calculated by the method of Grykiewicz et al., J. Biol. Chem. 260, 3440 (1985). The ratio of the fluorescence readings was calculated as R=340/380 nm and processed according to the equation [Ca^2+]i=KD((R−Rmim)/Rmax−R)) (Sf2/Sb2) to determine the intrafibroblast free Ca^2+ concentration. The KD for fura-2 was assumed to be 224 nM. Rmax and Rmin are the maximum and minimum fluorescence ratios measured at the end of the experiment, respectively; Sf2 and Sb2 are the fluorescence values at 380 nm in the absence and presence of saturating [Ca 2+], respectively. The reaction was monitored for 3-5 minutes. […] In FIG. 4, peptide RGDWC (SEQ ID NO: 20) at 0.2 mM inhibited 31% of 4 nM α-thrombin-induced Ca^2+ mobilization in fibroblasts.

[3] = target: T1, biotin-NAT12 (NATLDPRSFLLR, peptide from PAR1) (Homo sapiens, UniProt P25116); assay: Biotin-NAT12 binding assay to peptides coupled to microtiter plates; details: relative to RPPGF given arbitrary binding level of 1
Experimental: A third assay was developed to ascertain the ability of biotin-NAT12 (NATLDPRSFLLR, SEQ ID NO: 41) to directly bind to peptides linked to microtiter plates. In this assay, peptide analogs were linked to microtiter plate cuvette wells by incubation of the peptide in 0.1 M Na2CO3, pH 9.6 buffer overnight at 4° C. After coupling the peptide to the cuvette well, the wells were dumped and each well was blocked with 1% bovine serun albumin in 0.01 M Na3PO4, 0.15 M NaCl, at pH 7.4. After incubation for 1 hour, the wells were dumped and washed three times with PBS-Tween. The wells were then incubated with biotin-NAT12. The amount of biotin-NAT12 bound was determined by adding streptavidin-peroxidase followed by adding turbo TMB (Pierce).
In decreasing order of binding level, these peptides include: RGKSC, RGKMC, RGKHC, RGKKC, RGKFC, RGKLC, RGKWC, and RGKVC (SEQ ID NOS 18, 7, 13, 14, 11, 1, 5 and 19, respectively). […] The best to least RGDO4C (SEQ ID NO: 44) peptides to bind biotin-NAT12 listed in Table VI are: RGDSC, RGDGC, RGDQC, RGDEC, RGDIC, RGDPC, RGDDC, and RGDYC (SEQ ID NOS 34, 28, 23, 22, 36, 38, 27 and 35, respectively). A solid phase peptide-peptide binding assay was used to determine biotin-NAT12 binding to library peptides. Test peptides in 0.1 M Na2CO3, pH 9.6 buffer, at 10 μg/well in 50 μl volume, were coupled to microtiter plate wells by overnight incubation at 4° C. After incubation, the contents of the wells were discarded and the wells were washed with a pH 7.4 buffer containing 0.01 M Na3PO4, 0.15 M NaCl, and 0.01% Tween 20. After blocking each well with 1% radioimmunoassay grade bovine serum albumin, the linked peptides were incubated with 100 μl of 100 μM biotin-NAT12 for 1 hour at 37° C. After incubation, the contents of the wells were dumped and the wells were washed three times (100 μl/well each time) with the buffer identified above. Each well then was incubated with 100 μl of 2 μg/ml solution of Immuno-Pure streptoavidin horeseradish peroxidase conjugate (Pierce Chemical Co., […], Ill.) for 1 hour at room temperature. The contents of the wells were discarded and the wells were washed three times as described above. The wells were then incubated with 100 μl of peroxidase-specific fast reacting substrate, turbo-3,3′,5,5′-tetramethylbenzidine (turbo-TMB, Pierce) for 5 minutes at room temperature and the developing color reaction was stopped by the addition of 100 μof 1 M phosphoric acid. The absorbance was measured at 450 nm using a Microplate Auto Reader EL311 (Bio-Tek, Winooski, Vt.).

[4] = target: T1, biotin-NAT12 (NATLDPRSFLLR, peptide from PAR1); assay: as above; details: peptides at 10 μg/ml coupled to microtiter plate
[5] = tested on: platelets (platelet-rich plasma); assay: ADP-induced platelet aggregation in platelet-rich plasma; format: cell-based, human; details: 1 mM peptide, 4.5 μM ADP
Experimental: as §1

[6] = RGKO4C sublibrary, platelet-rich plasma

Substance	Level of Binding to Biotin-NAT12 ([3]; RGDO4C sublibrary)	Level of Binding to Biotin-NAT12 ([3]; RGKO4C sublibrary)	Fold Increase in Aggregation Inhibition over RPPGF ([1]; RGDO4C sublibrary)	Ca2+ % Inhibition At 0.2 mM Peptide ([2]; RGDO4C sublibrary)	Fold Increase in Aggregation Inhibition over RPPGF [1, 6]	Ca2+ % Inhibition At 0.2 mM Peptide ([2]; RGKO4C sublibrary)	other results
RGDSC: peptide of the H-R-G-D-O4-C-NH2 sublibrary (H-RGDSC-NH2)	1.44	–	5 fold	0%	–	–	level of biotin-NAT12 binding compared with other peptides (in words) [4]: equivalent to the ability of RGKWC
RGDQC: peptide of the H-R-G-D-O4-C-NH2 sublibrary (H-RGDQC-NH2)	1.32	–	15.8 fold	8.45%	–	–	–
Arg-Gly-Lys-Trp-Cys (RGKWC-NH2) [peptide of the H-R-G-K-O4-C-NH2 sublibrary]	–	1.3	–	–	1.3 fold	62.5%	peptide concentration at which γ-thrombin-induced platelet aggregation returned ([1]; platelet-rich plasma): 0.125 mM; effect on ADP-induced platelet aggregation (in words) [5]: did not inhibit; peptide concentration at which α-thrombin overcame the inhibitory effect on Ca2+ mobilization ([2]; 2 nM α-thrombin, fibroblasts): 12.5 µM; peptide concentration at which α-thrombin-induced calcium mobilization is abolished ([2]; 2 nM α-thrombin, fibroblasts): 0.2 mM; peptide concentrations blocking α-thrombin-induced Ca2+ mobilization ([2]; 2 nM α-thrombin, fibroblasts): ≥ 50 µM; level of biotin-NAT12 binding compared with other peptides (in words) [4]: binds to a greater extent than peptide RGDWC; also recorded: greater than RPPGF; also recorded: less than that seen with the multiple branched peptide MAP4RPPGF
RGKTC: peptide of the H-R-G-K-O4-C-NH2 sublibrary (H-RGKTC-NH2)	–	0.597	–	–	4.4 fold	26.8%	–
Arg-Pro-Pro-Gly-Phe (RPPGF) [bradykinin analog peptide used as control, reference compound]	1	1.0	1 fold	–	1.0 fold	–	peptide concentration at which γ-thrombin-induced platelet aggregation returned ([1]; platelet-rich plasma): 0.25 mM; effect on ADP-induced platelet aggregation (in words) [5]: did not inhibit
RGDMC: peptide of the H-R-G-D-O4-C-NH2 sublibrary (H-RGDMC-NH2)	0.87	–	15 fold	26.2%	–	–	–
RGKLC: peptide of the H-R-G-K-O4-C-NH2 sublibrary (H-RGKLC-NH2)	–	1.5	–	–	7.7 fold	8.33%	–
RGDFC: peptide of the H-R-G-D-O4-C-NH2 sublibrary (H-RGDFC-NH2)	0.671	–	25 fold	30.3%	–	–	–
RGKYC: peptide of the H-R-G-K-O4-C-NH2 sublibrary (H-RGKYC-NH2)	–	0.94	–	–	1.3 fold	0%	–

The next lines start with results.

Level of Binding to Biotin-NAT12 ([3]; RGDO4C sublibrary)	Level of Binding to Biotin-NAT12 ([3]; RGKO4C sublibrary)	Substance	Fold Increase in Aggregation Inhibition over RPPGF ([1]; RGDO4C sublibrary)	Ca2+ % Inhibition At 0.2 mM Peptide ([2]; RGDO4C sublibrary)	Fold Increase in Aggregation Inhibition over RPPGF [1, 6]	Ca2+ % Inhibition At 0.2 mM Peptide ([2]; RGKO4C sublibrary)	other results
1.11	–	RGDDC: peptide of the H-R-G-D-O4-C-NH2 sublibrary (H-RGDDC-NH2)	7.5 fold	8.9%	–	–	–
0.759	–	RGDHC: peptide of the H-R-G-D-O4-C-NH2 sublibrary (H-RGDHC-NH2)	14.8 fold	9.9%	–	–	–
–	0.38	RGKRC: peptide of the H-R-G-K-O4-C-NH2 sublibrary (H-RGKRC-NH2)	–	–	2.5 fold	35.7%	–
–	0.98	RGKIC: peptide of the H-R-G-K-O4-C-NH2 sublibrary (H-RGKIC-NH2)	–	–	1.3 fold	13.8%	–
